Experimental data taken from patent US10111847B2, “Compounds and methods for modulating vascular injury” (The Regents of the University of California, priority 2012, dated 2018).

Tests used:
Type in all cases: cell-based, human
inflammatory mediators = experiment: Inflammation cytokine array of conditioned medium from sv-ECs; details: 100 nm, 30 min; TNF α 1 ng/ml 18 hrs
Procedure: Media was collected and incubated for 2 hr with the inflammation array membranes. The cells were harvested for protein estimation for normalization purposes. The membranes were washed following instruction protocol supplied by the manufacturer (Raybiotech Inc., Norcross, Ga.) and probed with biotinylated anti-cytokine antibody cocktail (provided by the manufacturer) for 2 hrs. The membranes were again washed with appropriate buffers provided by the manufacturer and incubated for 2 hrs with HRP-conjugated streptavidin, followed by chemiluminescence based detection of signal by Chemidoc (Biorad Inc.)
Inflammatory signals are amplified by autocrine and paracrine pathways that include the elaboration of pro-inflammatory mediators into the local extracellular milieu. Cells grown in 6 cm dish were serum starved for 24 hrs. The cells were then pre-treated with 100 nm 7S-Maresin-1 for 30 min followed by 18 hrs of TNF α (1 ng/ml). Cell culture media was collected and incubated with human inflammation cytokine array membranes (AAH-INF-3-4, Raybiotech Inc.), coated with antibodies (in duplicate) recognizing 40 different inflammatory mediators.
FIGS. 19A-19C. (A, B) Representative membrane images from a set of three pairs. (C) Densitometric quantitation of each of the attenuated inflammatory mediators in three independent experiments was performed and is represented in the bar graph. […]

p65 subunit = experiment: Nuclear translocation of p65 subunit in sv-VSMCs (immunofluorescence); details: 100 nm, 30 min; TNFα 10 ng/ml 2 hrs
Procedure: Immunofluorescence for p65 (RelA): 15000 VSMCs or 30000 ECs were seeded on a 8-well chamber slide. Cells received 30 min of Maresin-1 pretreatment, followed by TNF-α for 2 hr. Cells were fixed in 2% paraformaldehyde, followed by permeabilization with ice-cold acetone (10 min) and 1% Triton X-100 (20 min). Cells were incubated overnight in a humidified chamber with anti-p65 antibody (Santa Cruz Biotechnology Inc.) followed by Alexa-fluor 488 tagged secondary antibody (Life Technologies) and were visualized under a fluorescent microscope.
FIGS. 16A-16D. VSMCs were grown in chamber slides and treated with vehicle or 100 nm of 7S or 7R-Maresin-1 with/without 10 ng/ml pertussis toxin for 30 min, followed by TNFα (10 ng/ml) for 2 hrs. Cells were fixed and subsequently stained with anti-p65 (Santa Cruz Biotechnology) and secondary antibodies (Alexa-488). (A-D) Representative images of Ctrl (A), TNFα (B), 7R-Maresin-1+TNFα (C) and 7R-Maresin-1+pertussis toxin (10 ng/ml)+TNFα. (E) Mean fluorescence of nucleus and cytoplasm were quantified from all groups and the net result of the ratio of nucleus over cytoplasmic mean fluorescence is depicted in the bar graph, as a measure of relative p65 nuclear translocation. (N>=3). […]

ICAM-1, IL-1β, and IL-1α = experiment: Gene expression in VSMC in presence or absence of pertussis toxin (PTX); details: RvD2 10 nM; PTX 100 ng/ml; TNF-α
Procedure: Cells are plated onto 6-well plates at 100% confluency in DMEM plus 10% FBS and allowed to attached overnight. Cells are then made quiescent by placing in serum-free media for 48-72 hours prior to start of experiments. Cells are treated with or without RvD1 or RvD2 at the indicated concentrations for one hour followed by co-incubation with cytokine (TNF-α 10 ng/ml) for up to 18 hours. In a separate set of experiments to examine the role of G-protein receptors, VSMCs are exposed to TNF-α and RvD2 (10 nM) as described above, in the presence or absence of pertussis toxin (PTX 100 ng/ml). Total RNA from rabbit sample or cells is isolated with PureLink RNA Mini kit (Ambion Life Technologies, Carlsbad, Calif.) with RNase-free DNase treatment according to manufacturer's protocol. One microgram of total RNA (from either VSMC or rabbit tissue) is used to generate cDNA using High Capacity cDNA Reverse Transcription Kit (Applied Biosystems, Foster City, Calif.) for subsequent RT-PCR reactions. Sybrgreen Amplified DNA is detected by incorporation SYBR Green (Qiagen, Germantown, Md.). […]
FIG. 9: Effects of RvD2 on gene expression in VSMC are sensitive to pertussis toxin (PTX). […] RNA was harvested and analyzed for the expression of ICAM-1, IL-1β, and IL-1α by qPCR (n=3, results are mean±SEM, **P<0.01, *P<0.05, one-way ANOVA followed by Bonferroni's post hoc test).

SMILES | levels of multiple inflammatory mediators in conditioned medium from EC (inflammatory mediators) | nuclear translocation of p65 subunit in human sv-VSMCs (p65 subunit) | effect of pertussis toxin on inhibition of ICAM-1, IL-1β, and IL-1α gene expression (ICAM-1, IL-1β, and IL-1α)
CC/C=C\C/C=C\C[C@H](O)\C=C/C=C/C=C/[C@@H](O)C/C=C\CCC(=O)O [7S-Maresin-1, 7S,14R-dihydroxydocosa-4Z,8E,10Z,12Z,16Z,19Z-hexaenoic acid] | reduced | Inhibit | 
CC/C=C\C[C@H](O)[C@H](O)/C=C/C=C/C=C\C=C\[C@@H](O)C/C=C\CCC(=O)O [RvD2, resolvin D2] |  |  | abrogation of the inhibitory effects
